From patent US20060251717A1, “Memantine Oral Dosage Forms” (priority 2003, published 2006)

Test: Administration of memantine in 2 mg weekly increments to a patient suffering from glaucoma, tolerance observed
Format: in vivo
Details: 2 mg tablet for one week
Experimental: In certain cases, the initial administration of 5 mg of memantine, or the increase in the dosage by 5 mg increments, may be more than can be tolerated by the patient. […] The term adverse event refers to any undesirable side effect or toxic effect associated with memantine. In relation to embodiments of this type, it is preferable that the dose of memantine is increase by an increment of about 0.25 to about 0.5 mg each day until the maintenance dose is reached.
(§1) To a patient suffering from glaucoma, is administered a tablet comprising 2 mg of memantine is administered for one week. The patient then receives a tablet comprising a 4 mg dose for one week. The dose is increased by 2 mg each week until a 10 mg dose is reached at the beginning of the fifth week. […] The tablet comprising 10 mg of memantine is administered daily for as long as the drug is needed.
as §1, with “20” for “10”, “tenth” for “fifth”

## CC12CC3CC(C)(C1)CC(N)(C3)C2 [memantine]
Dose increased by 2 mg each week until 10 mg at beginning of fifth week, first four weeks of administration
  tolerance of the drug: improved tolerance
Dose increased by 2 mg each week until 20 mg at beginning of tenth week, first nine weeks of administration
  tolerance of the drug: improved tolerance
